# Test results as given in patent US10188637B2, “Granulate formulation of 5-methyl-1-phenyl-2-(1H)-pyridone and method of making the same” (HOFFMANN-LA ROCHE INC., priority 2016, dated 2019).
# Assays:
# [1] = system: human mesenchymal-like cells (lung fibroblasts, skin fibroblasts, prostate stromal cells, renal mesangial cells); details: graded concentrations in cell culture media; cited from earlier work
# [2] = Flow function coefficient (FFC) of powder blends mixed in a turbula mixer; assay type: physicochemical; details: powder blend
# Description: Flow function coefficient (FFC) is a measure of powder flow. Values less than about 4 are considered poor and sub-optimal for powder processing. Values between 4-10 are considered acceptable flow values for powder processing. Flow behavior was analyzed for pure pirfenidone (without excipients) and a binary powder mixture of pirfenidone and microcrystalline cellulose mixed with either about 1% by weight silica or about 2% by weight silica, as shown in Table 3 below. The components were mixed in a turbula mixer and the different flow properties of the blends were measured.
# [3] = after oral administration; cited from earlier work
smiles,measurement,setting,value
"Cc1ccc(=O)n(-c2ccccc2)c1 [Pirfenidone, 5-methyl-1-phenyl-2-(1H)-pyridone]",Effective levels relative to levels exerting pharmacologically toxic effects on the cells,[1],ten to twenty times lower
same,Flow Function Coefficient (Avg.),[2],2.3
same,"Flow Function Coefficient (Avg.), flow rating in words",[2],(poor flow)
same,Observed side effects,[3],"relatively mild (drowsiness, gastric nausea or photosensitivity rash)"
same,Serious adverse reactions,[3],No serious adverse reactions have been reported
